From patent US20080249077A1, “17.Beta.-Fluoromethoxycarbonyl-Androst-4-En-3-One Compounds With a 17.Alpha.-Carbonate Sustituent” (priority 2005, published 2008) come the findings set out here.

For experiment [1], the target named is T1, glucocorticoid receptor (Homo sapiens, UniProt P04150).
T1 construct: A549 cells stably transfected with a reporter gene; endogenous in cells; host or cells: A549 cells
T1 sequence (P04150 1-777): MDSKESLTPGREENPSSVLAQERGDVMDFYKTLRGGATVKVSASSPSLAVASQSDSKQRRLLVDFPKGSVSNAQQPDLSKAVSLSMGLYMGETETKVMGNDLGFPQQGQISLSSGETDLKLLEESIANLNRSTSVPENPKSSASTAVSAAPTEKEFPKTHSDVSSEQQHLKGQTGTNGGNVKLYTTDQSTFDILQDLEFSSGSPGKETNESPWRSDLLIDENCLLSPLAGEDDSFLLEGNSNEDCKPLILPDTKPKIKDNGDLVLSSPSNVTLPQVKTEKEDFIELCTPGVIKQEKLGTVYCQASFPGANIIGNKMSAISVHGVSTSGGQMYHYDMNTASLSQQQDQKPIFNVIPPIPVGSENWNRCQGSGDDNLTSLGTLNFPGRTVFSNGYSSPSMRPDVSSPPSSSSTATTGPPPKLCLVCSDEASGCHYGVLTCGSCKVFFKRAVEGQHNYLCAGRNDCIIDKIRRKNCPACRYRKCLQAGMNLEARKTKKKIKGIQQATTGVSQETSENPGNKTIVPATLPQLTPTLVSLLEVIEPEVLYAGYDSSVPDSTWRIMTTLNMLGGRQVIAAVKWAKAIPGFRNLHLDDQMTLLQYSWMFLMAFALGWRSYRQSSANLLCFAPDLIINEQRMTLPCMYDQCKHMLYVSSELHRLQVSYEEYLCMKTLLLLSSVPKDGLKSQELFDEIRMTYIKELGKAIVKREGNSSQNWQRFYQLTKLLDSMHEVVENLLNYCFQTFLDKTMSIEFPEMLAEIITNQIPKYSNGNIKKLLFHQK
Put plainly: Assay for transrepression activity of the glucocorticoid agonists (NF-κB responsive ELAM promoter-sPAP reporter, TNF-stimulated A549 cells). Format: cell-based. To be noted: compound 1 hour at 37° C., then TNF 10 ng/ml for 16 hours, read-out: pIC50 (transrepression) (converted). The method, then:
Assay for Transrepression Activity of the Glucocorticoid Agonists
A549 cells stably transfected with a reporter gene containing the NF-κB responsive elements from the ELAM gene promoter coupled to sPAP (secreted alkaline phosphatase) are treated with test compounds at appropriate doses for 1 hour at 37° C. The cells are then stimulated with tumour necrosis factor (TNF, 10 ng/ml) for 16 hours, at which time the amount of alkaline phosphatase produced is measured by a standard colourimetric assay. Dose response curves were constructed from which EC50 values were estimated.

Experiment [2] addresses T1, glucocorticoid receptor. The experiment can be described thus: Assay for transactivation activity of the glucocorticoid agonists (MMTV-LTR renilla luciferase reporter in A549 cells). The following applies: compound 6 hour at 37° C., read-out: maximal response relative to Dexamethasone (100%) (transactivation). Format: cell-based. The method, then: Assay for Transactivation Activity of the Glucocorticoid Agonists
The functional assay based on that described by R. J. H. Austin et al., Eur Resp J. (2002), 20, 1386-1392 measures the ability of compounds to directly transactivate gene expression. A549 cells stably transfected with a reporter gene containing the glucocorticoid responsive region of the mouse mammary tumour virus long terminal repeat (MMTV-LTR) coupled to renilla luciferase were treated with test compounds at appropriate doses for 6 hour at 37° C. The amount of luciferase activity present within the cells is then determined by measuring the light emitted following incubation with a suitable substrate. Dose response curves were constructed from which EC50 values were estimated and from which maximal responses are calculated relative to Dexamethasone (100%).
Background: Reporter assays use an easily measured gene product as a stand-in for the process of interest.

Some results are limits rather than exact numbers.

Regarding `C[C@@H]1C[C@H]2[C@@H]3C[C@H](F)C4=CC(=O)C=C[C@]4(C)[C@@]3(F)[C@@H](O)C[C@]2(C)[C@@]1(OC(=O)OCC1CCCC1)C(=O)OCF` [Example 15, Fluoromethyl(6α,11β,16α,17α)-17-({[(cyclopentylmethyl)oxy]carbonyl}oxy)-6,9-difluoro-11-hydroxy-16-methyl-3-oxoandrosta-1,4-diene-17-carboxylate], the IC50 in experiment [1] is less than 0.1 nM. In addition, the Emax in experiment [2] is less than 25%.
On to `CCC(CC)COC(=O)O[C@]1(C(=O)OCF)[C@H](C)C[C@H]2[C@@H]3C[C@H](F)C4=CC(=O)C=C[C@]4(C)[C@@]3(F)[C@@H](O)C[C@@]21C` [Example 6, Fluoromethyl(6α,11β,16α,17α)-17-({[(2-ethylbutyl)oxy]carbonyl}oxy)-6,9-difluoro-11-hydroxy-16-methyl-3-oxoandrosta-1,4-diene-17-carboxylate], for which the IC50 in experiment [1] is less than 0.1 nM. Moreover, the Emax in experiment [2] is less than 25%.
For the compound `CC(C)C(C)OC(=O)O[C@]1(C(=O)OCF)[C@H](C)C[C@H]2[C@@H]3C[C@H](F)C4=CC(=O)C=C[C@]4(C)[C@@]3(F)[C@@H](O)C[C@@]21C` (stereo partly drawn) [Example 9, Fluoromethyl(6α,11β,16α,17α)-17-({[(1,2-dimethylpropyl)oxy]carbonyl}oxy)-6,9-difluoro-11-hydroxy-16-methyl-3-oxoandrosta-1,4-diene-17-carboxylate], the IC50 in experiment [1] was less than 0.1 nM. Further, the Emax in experiment [2] is less than 25%.
Regarding `C[C@@H]1C[C@H]2[C@@H]3C[C@H](F)C4=CC(=O)C=C[C@]4(C)[C@@]3(F)[C@@H](O)C[C@]2(C)[C@@]1(OC(=O)OC(C)(C)C)C(=O)OCF` [Example 1, Fluoromethyl(6α,11β,16α,17α)-17-({[(1,1-dimethylethyl)oxy]carbony}oxy)-6,9-difluoro-11-hydroxy-16-methyl-3-oxoandrosta-1,4-diene-17-carboxylate], the IC50 in experiment [1] was less than 0.1 nM. For the same compound, in experiment [2], the Emax was less than 25%.
